Measurements taken from patent publication US11773420B2, “Process for enzymatic hydrolysis of lignocellulosic material and fermentation of sugars” (VERSALIS S.P.A., priority 2014, dated 2023).

System: cellulase enzyme cocktail TEC210
Assay: Effect of gluconic acid on enzymatic hydrolysis of pretreated corn stover by TEC210
Type: biochemical, Rasamsonia
Details: for Glucose release (in %): 6% w/w dm, pH 4.5, 62° C., 50 hours, 5 mg TEC210/g dm
Description: Twenty grams of pretreated corn stover were incubated in a 50 ml Greiner test tube for 50 hours at a dry matter level of 6% w/w, pH 4.5 at 62° C. in the presence of 5 mg of the cellulase enzyme cocktail TEC210 per gram of dry matter and in the presence of 0, 2, 4, 6, or 8 g/l gluconic acid to determine the inhibiting effect of gluconic acid on the hydrolysis of glucan in lignocellulosic feedstock. The experiment is performed at maximum oxygen saturation.
Samples were taken after 50 hours of incubation and the samples were centrifuged for further analysis in an Eppendorf centrifuge type 5810 for 8 minutes at 4000 rpm. The glucose concentration was measured in the supernatant of each sample by means of HPLC using a Bio-Rad HPX87H column. The glucose release as presented in Table 3 is a direct measure for the enzymatic hydrolysis (glucan hydrolysis). A gluconic acid level of 2 g/l in the supernatant corresponds with 89 g/kg glucan in the lignocellulosic material. This can be calculated as described above with a density of 1.02 kg/I, a pellet factor of 2% and a glucan content of 21.6 g glucan/kg hydrolysate.

O=C(O)[C@H](O)[C@@H](O)[C@H](O)[C@H](O)CO [Gluconic acid, gluconic acid]
Glucose release (in %) (gluconic acid added 2 g/l (89 g/kg glucan)): 90%
Glucose release (in %) (gluconic acid added 4 g/l (178 g/kg glucan)): 82%
Glucose release (in %) (gluconic acid added 6 g/l (267 g/kg glucan)): 79%
Glucose release (in %) (gluconic acid added 8 g/l (356 g/kg glucan)): 77%
effect on glucan hydrolysis (higher concentrations of gluconic acid): negative effect on glucan hydrolysis
